Assay results as given in ChEMBL document CHEMBL1201862, “PubChem BioAssay data set” (2004).
The source made the active and inactive calls.

Legend:
[1] = molecular target: 1-phosphatidylinositol 4,5-bisphosphate phosphodiesterase gamma-1 (Homo sapiens, UniProt P19174); assay: Counterscreen for inhibitors of phospholipase C isozymes (PLC-B3): Fluorescence-based biochemical high throughput dose response assay to identify inhibitors of phospholipase C isozymes (PLC-gamma1).
[2] = molecular target: T1, Intestinal-type alkaline phosphatase (Homo sapiens, UniProt P09923); assay: activation of human intestinal alkaline phosphatase – biochemical, dose response (AID 488873); format: functional
T1 sequence (P09923 whole entry): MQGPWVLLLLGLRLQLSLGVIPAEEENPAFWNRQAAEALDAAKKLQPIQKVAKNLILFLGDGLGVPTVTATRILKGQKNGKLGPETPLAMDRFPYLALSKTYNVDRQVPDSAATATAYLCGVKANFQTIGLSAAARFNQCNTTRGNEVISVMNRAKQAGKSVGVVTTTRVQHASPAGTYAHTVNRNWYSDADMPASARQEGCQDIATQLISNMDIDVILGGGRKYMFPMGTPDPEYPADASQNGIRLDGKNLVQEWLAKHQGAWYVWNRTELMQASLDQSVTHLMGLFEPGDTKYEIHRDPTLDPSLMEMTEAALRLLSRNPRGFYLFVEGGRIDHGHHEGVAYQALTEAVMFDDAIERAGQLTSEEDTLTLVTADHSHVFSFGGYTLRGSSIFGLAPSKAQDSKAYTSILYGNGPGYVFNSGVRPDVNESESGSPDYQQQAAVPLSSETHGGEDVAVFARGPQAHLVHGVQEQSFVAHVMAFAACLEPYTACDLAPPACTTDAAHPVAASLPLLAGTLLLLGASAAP

[3] = molecular target: 1-phosphatidylinositol 4,5-bisphosphate phosphodiesterase beta-3 (Homo sapiens, UniProt Q01970); assay: Fluorescence-based biochemical high throughput dose response assay to identify inhibitors of phospholipase C isozymes (PLC-B3).
[4] = molecular target: T2, Intestinal-type alkaline phosphatase (Mus musculus, UniProt P24822); assay: PubChem AID 488785; format: functional
T2 sequence (P24822 whole entry): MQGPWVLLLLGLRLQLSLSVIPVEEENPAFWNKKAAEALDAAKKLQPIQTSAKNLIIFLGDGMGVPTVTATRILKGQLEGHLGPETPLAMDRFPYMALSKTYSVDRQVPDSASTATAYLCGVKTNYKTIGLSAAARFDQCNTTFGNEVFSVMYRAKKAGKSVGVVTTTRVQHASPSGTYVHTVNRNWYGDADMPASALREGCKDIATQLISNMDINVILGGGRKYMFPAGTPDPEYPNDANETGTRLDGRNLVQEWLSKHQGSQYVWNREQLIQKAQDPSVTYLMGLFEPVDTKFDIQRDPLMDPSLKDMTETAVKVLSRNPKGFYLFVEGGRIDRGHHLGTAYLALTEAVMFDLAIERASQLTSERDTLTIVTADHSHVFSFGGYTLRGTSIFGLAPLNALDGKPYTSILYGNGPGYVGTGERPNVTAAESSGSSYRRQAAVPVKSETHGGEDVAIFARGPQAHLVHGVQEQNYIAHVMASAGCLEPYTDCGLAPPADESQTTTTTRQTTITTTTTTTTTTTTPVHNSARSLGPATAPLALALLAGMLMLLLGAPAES

[5] = molecular target: T2, Intestinal-type alkaline phosphatase; assay: PubChem AID 488874; format: functional
Large T antigen = Large T antigen (Simian virus 40, UniProt P03070); format: functional, Betapolyomavirus macacae;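 note: Confirmatory-stage PubChem screen for compounds that inhibit SV40 T antigen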
Large T antigen, sequence (P03070 whole entry): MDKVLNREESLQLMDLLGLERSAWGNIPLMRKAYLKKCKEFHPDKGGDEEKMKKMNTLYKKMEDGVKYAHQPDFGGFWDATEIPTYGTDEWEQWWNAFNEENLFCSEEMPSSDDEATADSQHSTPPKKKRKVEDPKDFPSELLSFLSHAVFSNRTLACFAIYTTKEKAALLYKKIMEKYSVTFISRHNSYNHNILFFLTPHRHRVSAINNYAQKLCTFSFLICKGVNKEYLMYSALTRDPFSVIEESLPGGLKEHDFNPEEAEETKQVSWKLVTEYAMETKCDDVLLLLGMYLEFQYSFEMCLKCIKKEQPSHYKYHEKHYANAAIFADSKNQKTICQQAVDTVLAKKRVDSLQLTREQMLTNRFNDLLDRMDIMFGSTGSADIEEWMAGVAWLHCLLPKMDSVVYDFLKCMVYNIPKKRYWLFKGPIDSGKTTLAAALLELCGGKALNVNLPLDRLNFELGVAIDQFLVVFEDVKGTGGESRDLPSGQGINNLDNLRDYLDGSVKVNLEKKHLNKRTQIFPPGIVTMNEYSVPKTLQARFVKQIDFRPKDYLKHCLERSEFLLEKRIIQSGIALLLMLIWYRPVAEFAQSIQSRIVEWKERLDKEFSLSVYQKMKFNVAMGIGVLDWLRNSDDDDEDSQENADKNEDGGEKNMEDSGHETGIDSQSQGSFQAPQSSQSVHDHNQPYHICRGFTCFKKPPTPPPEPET

[6] = molecular target: T1, Intestinal-type alkaline phosphatase; assay: Dose Response confirmation of uHTS hits from a small molecule inhibitors of human intestinal alkaline phosphatase via a luminescent assay. [Related pubchem assays (depositor defined):AID2544, AID2574]; format: functional
[7] = molecular target: T1, Intestinal-type alkaline phosphatase; assay: inhibition of human intestinal alkaline phosphatase – biochemical, luminescent, uHTS hits, set 2, dose response (AID 488793); format: functional
[8] = molecular target: T3, Alkaline phosphatase, tissue-nonspecific isozyme (Homo sapiens, UniProt P05186); assay: inhibition of tissue-nonspecific alkaline phosphatase – biochemical, dose response (AID 488882); format: functional
T3 sequence (P05186 whole entry): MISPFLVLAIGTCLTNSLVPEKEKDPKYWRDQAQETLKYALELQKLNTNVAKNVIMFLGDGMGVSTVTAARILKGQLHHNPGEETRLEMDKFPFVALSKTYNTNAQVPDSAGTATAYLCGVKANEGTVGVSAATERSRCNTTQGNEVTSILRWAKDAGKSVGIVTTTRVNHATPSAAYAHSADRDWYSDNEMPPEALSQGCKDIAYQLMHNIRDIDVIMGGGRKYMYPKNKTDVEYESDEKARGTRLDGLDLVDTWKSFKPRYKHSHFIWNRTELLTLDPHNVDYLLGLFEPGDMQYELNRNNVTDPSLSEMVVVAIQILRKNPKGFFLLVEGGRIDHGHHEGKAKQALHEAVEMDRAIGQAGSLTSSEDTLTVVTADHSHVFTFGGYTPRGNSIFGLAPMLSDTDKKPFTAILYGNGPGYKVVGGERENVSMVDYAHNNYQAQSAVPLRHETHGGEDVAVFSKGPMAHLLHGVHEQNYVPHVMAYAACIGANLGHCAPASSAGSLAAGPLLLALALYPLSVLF

[9] = molecular target: T3, Alkaline phosphatase, tissue-nonspecific isozyme; assay: TNAP enzyme inhibition by screening hits, dose response, selectivity assay for mouse IAP inhibitor project, biochemical, human TNAP, uHTS hits (AID 488906); format: functional
Cytochrome P450 3A4 = Cytochrome P450 3A4 (Homo sapiens, UniProt P08684);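 note: CYP3A4 tested as one member of a cytochrome P450 panel screen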
[10] = molecular target: T4, Mannose-6-phosphate isomerase (Homo sapiens, UniProt P34949); assay: MPI inhibition at elevated mannose 6-phosphate – biochemical, fluorescence intensity, high mannose 6-phosphate, primary screen (AID 1220)
T4 sequence (P34949 whole entry): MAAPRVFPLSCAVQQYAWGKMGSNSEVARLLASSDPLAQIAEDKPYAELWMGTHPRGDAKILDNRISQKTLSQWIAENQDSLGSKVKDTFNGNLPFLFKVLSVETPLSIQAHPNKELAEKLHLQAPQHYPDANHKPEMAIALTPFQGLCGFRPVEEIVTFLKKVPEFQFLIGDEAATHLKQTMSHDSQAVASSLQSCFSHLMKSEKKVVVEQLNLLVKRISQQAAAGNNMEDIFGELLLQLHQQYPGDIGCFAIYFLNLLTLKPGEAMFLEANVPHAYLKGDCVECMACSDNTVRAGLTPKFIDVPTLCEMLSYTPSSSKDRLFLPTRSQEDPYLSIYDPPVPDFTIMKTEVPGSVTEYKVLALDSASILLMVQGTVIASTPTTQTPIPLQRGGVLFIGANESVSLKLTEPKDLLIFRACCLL

[11] = molecular target: Neurotensin receptor type 1 (Homo sapiens, UniProt P30989); format: functional;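 note: Image-based confirmatory dose-response assay measuring agonist activity at NTR1; NTR1-expressing U2OS osteosarcoma cells imaged for beta-arrestin GFP spot formation; agonist potency where compounds increase beta-arrestin recruitment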
Neurotensin receptor type 1, sequence (P30989 whole entry): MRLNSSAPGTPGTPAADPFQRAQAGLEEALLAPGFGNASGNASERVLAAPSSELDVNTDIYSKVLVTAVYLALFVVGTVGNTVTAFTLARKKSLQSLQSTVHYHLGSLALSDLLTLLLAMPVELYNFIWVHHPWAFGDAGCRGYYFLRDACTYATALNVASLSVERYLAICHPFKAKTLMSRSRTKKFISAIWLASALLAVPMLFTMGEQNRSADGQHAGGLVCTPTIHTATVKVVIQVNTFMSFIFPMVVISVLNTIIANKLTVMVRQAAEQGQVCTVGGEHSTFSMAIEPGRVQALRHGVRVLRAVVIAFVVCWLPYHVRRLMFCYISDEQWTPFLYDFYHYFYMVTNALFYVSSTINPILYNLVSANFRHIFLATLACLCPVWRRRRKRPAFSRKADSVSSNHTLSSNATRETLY

MDCK = assay: antiviral activity against H1N1 influenza, dose response, cell-based, strain KY136 (AID 540257); format: functional; conditions: Canis lupus familiaris
[12] = molecular target: T5, Rac GTPase-activating protein 1 (Homo sapiens, UniProt Q9H0H5); assay: blockers of MgcRacGAP-driven Rac1 GTP hydrolysis – biochemical, ADP Hunter fluorescence, primary and confirmatory, confirmation (AID 624330); format: functional
T5 sequence (Q9H0H5 whole entry): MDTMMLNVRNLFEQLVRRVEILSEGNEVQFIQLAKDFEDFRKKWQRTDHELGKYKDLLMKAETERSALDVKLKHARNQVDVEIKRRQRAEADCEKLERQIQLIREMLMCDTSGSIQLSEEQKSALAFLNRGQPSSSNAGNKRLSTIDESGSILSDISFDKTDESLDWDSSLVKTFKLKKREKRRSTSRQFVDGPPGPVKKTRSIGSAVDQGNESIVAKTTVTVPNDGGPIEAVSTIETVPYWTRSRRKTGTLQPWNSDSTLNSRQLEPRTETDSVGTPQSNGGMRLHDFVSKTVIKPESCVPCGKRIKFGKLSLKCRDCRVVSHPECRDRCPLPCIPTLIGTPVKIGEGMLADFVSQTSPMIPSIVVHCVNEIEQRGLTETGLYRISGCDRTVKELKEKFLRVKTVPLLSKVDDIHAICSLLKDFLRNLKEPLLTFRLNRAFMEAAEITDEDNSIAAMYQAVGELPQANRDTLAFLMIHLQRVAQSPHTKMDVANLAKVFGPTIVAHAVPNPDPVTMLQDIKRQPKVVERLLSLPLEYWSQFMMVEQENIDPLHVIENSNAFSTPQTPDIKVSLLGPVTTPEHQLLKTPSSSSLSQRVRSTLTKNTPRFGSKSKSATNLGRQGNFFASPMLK

Nonstructural protein 1 = Nonstructural protein 1 (Influenza A virus, UniProt Q194T2); format: functional, Influenza A virus (A/California/07/2009(H1N1))
[13] = viability loss in HeLa cells – cytotoxicity control for MgcRacGAP inhibitor project, dose response (AID 624300); format: functional
[14] = molecular target: T6, Heat shock factor protein 1 (Mus musculus, UniProt P38532); assay: enhancement of HSF1-driven luciferase signal – cell-based, NIH3T3, luminescence, dose retest, confirmation (AID 435004); format: functional;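 note: stress induced by proteasome inhibitor MG132 added 30 min after compound; luciferase reporter driven by HSF1 response element in NIH3T3 cells; actives raise luminescence as potentiators of the MG132 stress response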
T6 sequence (P38532 whole entry): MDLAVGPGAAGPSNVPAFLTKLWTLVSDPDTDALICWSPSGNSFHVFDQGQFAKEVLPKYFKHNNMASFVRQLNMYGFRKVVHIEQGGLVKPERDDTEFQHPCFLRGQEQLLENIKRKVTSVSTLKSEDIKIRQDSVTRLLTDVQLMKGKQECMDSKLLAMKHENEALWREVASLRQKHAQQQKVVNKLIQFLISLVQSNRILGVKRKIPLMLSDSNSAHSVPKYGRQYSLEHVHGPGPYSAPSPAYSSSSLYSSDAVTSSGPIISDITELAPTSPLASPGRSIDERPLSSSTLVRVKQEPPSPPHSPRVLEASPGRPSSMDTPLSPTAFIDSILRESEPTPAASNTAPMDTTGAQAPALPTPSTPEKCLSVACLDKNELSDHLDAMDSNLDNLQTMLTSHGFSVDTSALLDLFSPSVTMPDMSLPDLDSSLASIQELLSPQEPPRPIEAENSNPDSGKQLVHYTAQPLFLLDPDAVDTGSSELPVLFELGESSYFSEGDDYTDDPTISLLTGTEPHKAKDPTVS

[15] = viability of HCT116 lacking mutant beta-catenin – cell-based, human colon tumor, dose response (AID 1045); format: functional;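 note: HCT116 colon tumor cells with beta catenin knocked out; cells exposed to compound for 60 hours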
[16] = viability of PTEN-deleted HCT116 cells – cell-based, HCT116 PTEN knockout, dose response (AID 1047); format: functional;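 note: HCT116 colon tumor cells with PTEN knocked out; cells exposed to compound for 60 hours before readout; potency for loss of cell viability measured by luminescence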
[17] = molecular target: Beta-adrenergic receptor kinase 1 (Homo sapiens, UniProt P25098); assay: blockers of aptamer binding to GRK2 – biochemical, flow cytometry beads, FAM-aptamer, powder set 1, dose response (AID 588720)
Beta-adrenergic receptor kinase 1, sequence (P25098 whole entry): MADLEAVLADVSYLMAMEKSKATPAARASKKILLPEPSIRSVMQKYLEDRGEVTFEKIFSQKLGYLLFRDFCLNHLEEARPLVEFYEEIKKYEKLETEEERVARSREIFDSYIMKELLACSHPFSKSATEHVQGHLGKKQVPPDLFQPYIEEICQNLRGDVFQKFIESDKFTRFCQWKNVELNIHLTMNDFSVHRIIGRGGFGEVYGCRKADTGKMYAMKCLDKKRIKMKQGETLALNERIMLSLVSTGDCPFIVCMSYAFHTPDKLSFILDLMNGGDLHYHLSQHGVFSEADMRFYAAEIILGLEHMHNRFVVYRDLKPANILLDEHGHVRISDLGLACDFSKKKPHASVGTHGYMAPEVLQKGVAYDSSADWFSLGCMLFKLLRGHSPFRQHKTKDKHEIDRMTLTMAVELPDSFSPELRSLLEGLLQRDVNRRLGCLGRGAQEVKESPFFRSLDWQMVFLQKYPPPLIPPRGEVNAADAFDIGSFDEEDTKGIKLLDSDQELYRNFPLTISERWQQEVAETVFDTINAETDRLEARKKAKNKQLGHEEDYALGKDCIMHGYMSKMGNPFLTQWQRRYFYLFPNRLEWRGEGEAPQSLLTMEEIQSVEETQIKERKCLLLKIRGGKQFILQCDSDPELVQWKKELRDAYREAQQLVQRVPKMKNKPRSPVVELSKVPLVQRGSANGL

[18] = Luminescence Cell-Based Dose Retest to Confirm Inhibitors of Cancer Stem Cells. [Related pubchem assays (depositor defined):AID2717, AID2721]; format: functional; conditions: Homo sapiens
Cytochrome P450 1A2 [19] = molecular target: T7, Cytochrome P450 1A2 (Homo sapiens, UniProt P05177);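 note: PubChem cytochrome P450 panel assay, CYP1A2 panel member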
T7 sequence (P05177 whole entry): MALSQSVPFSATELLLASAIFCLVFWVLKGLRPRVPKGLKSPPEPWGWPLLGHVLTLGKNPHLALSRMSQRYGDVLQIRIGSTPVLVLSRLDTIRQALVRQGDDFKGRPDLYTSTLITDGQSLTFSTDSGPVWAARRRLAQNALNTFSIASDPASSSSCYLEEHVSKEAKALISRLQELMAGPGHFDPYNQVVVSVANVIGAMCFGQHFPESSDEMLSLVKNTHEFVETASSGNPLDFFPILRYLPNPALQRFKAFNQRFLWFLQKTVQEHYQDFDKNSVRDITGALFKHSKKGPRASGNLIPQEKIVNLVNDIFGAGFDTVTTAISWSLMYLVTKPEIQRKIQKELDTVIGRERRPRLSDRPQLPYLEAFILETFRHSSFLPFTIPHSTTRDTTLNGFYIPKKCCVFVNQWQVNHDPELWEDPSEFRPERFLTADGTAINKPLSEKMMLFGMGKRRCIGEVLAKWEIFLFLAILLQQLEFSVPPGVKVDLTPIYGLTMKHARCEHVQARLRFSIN

[20] = NIH-3T3 fibroblast cytotoxicity, dose response, cytotoxicity control, cell-based, fluorescence, Alamar Blue, secondary assay (AID 2327); format: functional;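 note: NIH-3T3 mouse fibroblasts cultured with fluconazole at 8 µg/mL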
[21] = fluconazole-exposed Candida albicans growth modulators – fluorescence, retest, confirmation (AID 2467); format: functional, cell-based
[22] = viability loss of HMLE_sh_eGFP cells – cell-based, luminescence, counter-screen for HMLE_sh_ECad selective toxicity project, dose response (AID 463074); format: functional, Homo sapiens;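 note: HMLE human mammary epithelial cells expressing control shRNA against eGFP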
Cytochrome P450 1A2 [23] = molecular target: T7, Cytochrome P450 1A2; remark: listed apart in the source
Cytochrome P450 2C19 = Cytochrome P450 2C19 (Homo sapiens, UniProt P33261); assay: Cytochrome panel assay with activity outcomes. Panel member name: p450-cyp2c19 Compounds with AC50 equal or less than 10 uM are considered active; format: functional
Cytochrome P450 2C19, sequence (P33261 whole entry): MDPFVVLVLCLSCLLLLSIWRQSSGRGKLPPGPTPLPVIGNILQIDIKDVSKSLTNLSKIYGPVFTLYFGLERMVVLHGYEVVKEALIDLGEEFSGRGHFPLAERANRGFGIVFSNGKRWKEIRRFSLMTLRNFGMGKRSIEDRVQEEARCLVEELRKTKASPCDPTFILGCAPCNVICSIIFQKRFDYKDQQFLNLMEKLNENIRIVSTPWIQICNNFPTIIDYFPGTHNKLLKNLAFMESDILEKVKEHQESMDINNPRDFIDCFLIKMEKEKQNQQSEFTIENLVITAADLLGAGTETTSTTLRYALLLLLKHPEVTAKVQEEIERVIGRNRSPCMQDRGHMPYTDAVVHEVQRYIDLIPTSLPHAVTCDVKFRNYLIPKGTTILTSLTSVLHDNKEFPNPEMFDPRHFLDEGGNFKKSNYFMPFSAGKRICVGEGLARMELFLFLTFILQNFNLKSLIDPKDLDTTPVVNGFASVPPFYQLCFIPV

Cytochrome P450 2D6 = Cytochrome P450 2D6 (Homo sapiens, UniProt P10635);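 note: CYP2D6 member of a cytochrome P450 panel assay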
Cytochrome P450 2C9 = Cytochrome P450 2C9 (Homo sapiens, UniProt P11712)
[24] = molecular target: Dual specificity protein phosphatase 3 (Homo sapiens, UniProt P51452); assay: SAR VHR1 Fluorescent Assay for In Vitro dose response studies Set 3. [Related pubchem assays (depositor defined):AID1654, AID1661, AID1878]; format: functional
Dual specificity protein phosphatase 3, sequence (P51452 whole entry): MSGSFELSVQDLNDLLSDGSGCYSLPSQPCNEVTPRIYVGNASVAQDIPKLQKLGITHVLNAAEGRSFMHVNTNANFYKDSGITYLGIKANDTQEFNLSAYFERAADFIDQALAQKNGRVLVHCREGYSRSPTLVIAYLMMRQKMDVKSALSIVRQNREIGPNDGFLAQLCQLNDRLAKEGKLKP

Phospholipase A2 = Phospholipase A2 (Homo sapiens, UniProt P04054); assay: phospholipase A2 activity inhibition – biochemical, set 2, counter-screen for ATG4B inhibitor project, dose response (AID 588586); format: functional
Phospholipase A2, sequence (P04054 whole entry): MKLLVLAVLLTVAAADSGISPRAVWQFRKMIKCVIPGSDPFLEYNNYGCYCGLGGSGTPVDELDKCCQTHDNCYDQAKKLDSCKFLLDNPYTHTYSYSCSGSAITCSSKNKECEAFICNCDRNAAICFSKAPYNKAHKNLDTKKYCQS

BJ [25] = assay: cells; format: functional, cell-based; conditions: Homo sapiens
BJ [26] = assay: BJ-TERT fibroblast viability loss – cell-based, RAS-independent, luminescence, dose response (AID 1933); format: functional; conditions: Homo sapiens
[27] = DRD fibroblast viability loss – cell-based, non-viral oncogenic, luminescence, dose response (AID 1934); format: functional; conditions: Homo sapiens
Cysteine protease ATG4B = molecular target: T8, Cysteine protease ATG4B (Homo sapiens, UniProt Q9Y4P1); assay: autophagin-1 cysteine protease inhibition – biochemical, fluorescence, set 2, dose response (AID 588584); format: functional
T8 sequence (Q9Y4P1 whole entry): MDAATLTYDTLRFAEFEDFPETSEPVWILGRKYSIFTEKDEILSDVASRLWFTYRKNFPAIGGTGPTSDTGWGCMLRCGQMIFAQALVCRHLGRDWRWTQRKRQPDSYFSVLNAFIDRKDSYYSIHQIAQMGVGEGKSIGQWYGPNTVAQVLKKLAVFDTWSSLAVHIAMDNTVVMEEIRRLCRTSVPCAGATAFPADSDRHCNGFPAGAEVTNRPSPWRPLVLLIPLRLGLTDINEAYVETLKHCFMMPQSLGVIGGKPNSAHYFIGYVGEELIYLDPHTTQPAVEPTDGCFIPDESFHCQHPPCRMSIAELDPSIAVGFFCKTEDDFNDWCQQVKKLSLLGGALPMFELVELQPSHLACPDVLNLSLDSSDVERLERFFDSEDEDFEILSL

1-phosphatidylinositol 4,5-bisphosphate phosphodiesterase gamma-1, sequence (P19174 whole entry): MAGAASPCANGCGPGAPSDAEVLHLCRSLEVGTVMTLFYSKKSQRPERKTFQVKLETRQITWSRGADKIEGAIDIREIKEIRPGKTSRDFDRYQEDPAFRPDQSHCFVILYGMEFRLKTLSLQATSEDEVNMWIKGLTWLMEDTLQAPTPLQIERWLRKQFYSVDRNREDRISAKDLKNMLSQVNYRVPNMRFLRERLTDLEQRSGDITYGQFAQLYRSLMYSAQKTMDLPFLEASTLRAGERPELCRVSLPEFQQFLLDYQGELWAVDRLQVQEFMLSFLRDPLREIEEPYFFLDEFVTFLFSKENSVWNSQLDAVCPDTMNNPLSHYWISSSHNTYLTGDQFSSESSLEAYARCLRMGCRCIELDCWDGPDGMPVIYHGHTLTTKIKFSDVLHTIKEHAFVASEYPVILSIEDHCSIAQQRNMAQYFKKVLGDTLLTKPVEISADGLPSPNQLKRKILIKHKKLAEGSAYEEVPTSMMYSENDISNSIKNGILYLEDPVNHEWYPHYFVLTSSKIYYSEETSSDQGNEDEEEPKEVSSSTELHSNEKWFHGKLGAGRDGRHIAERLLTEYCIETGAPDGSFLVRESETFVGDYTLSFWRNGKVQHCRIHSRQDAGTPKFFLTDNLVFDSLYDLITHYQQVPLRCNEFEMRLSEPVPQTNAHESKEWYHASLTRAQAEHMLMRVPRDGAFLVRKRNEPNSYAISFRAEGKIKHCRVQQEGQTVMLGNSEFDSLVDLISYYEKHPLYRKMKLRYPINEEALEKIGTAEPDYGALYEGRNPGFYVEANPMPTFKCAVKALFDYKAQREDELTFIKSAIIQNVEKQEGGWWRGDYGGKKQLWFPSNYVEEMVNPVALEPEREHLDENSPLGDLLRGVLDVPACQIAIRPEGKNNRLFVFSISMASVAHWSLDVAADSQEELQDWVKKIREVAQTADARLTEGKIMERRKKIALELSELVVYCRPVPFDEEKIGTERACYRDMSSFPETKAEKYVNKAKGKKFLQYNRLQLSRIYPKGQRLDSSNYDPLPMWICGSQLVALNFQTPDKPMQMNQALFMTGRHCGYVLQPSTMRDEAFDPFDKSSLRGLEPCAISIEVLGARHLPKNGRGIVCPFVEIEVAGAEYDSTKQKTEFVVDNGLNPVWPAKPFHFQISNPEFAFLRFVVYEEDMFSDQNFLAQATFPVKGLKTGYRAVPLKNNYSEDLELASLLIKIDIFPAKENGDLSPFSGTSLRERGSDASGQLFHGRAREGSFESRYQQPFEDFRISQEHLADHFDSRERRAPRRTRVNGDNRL

COc1cc(/C=C(\C#N)C(=O)c2ccc(O)c(O)c2)cc(I)c1O
IC50 [1]: > 122 µM (inactive)
EC50 [2]: > 100 µM (inactive)
IC50 [3]: > 122 µM (inactive)
IC50 [4]: 5.7 µM (active)
IC50 [5]: < 195 nM (active)
IC50 (Large T antigen): 7.17 µM (active)
IC50 [6]: 7.31 µM (active)
IC50 [7]: 4.56 µM (active)
IC50 [8]: 5.88 µM (active)
IC50 [9]: > 100 µM (inactive)
AC50 (Cytochrome P450 3A4): 12.6 µM (inconclusive)

COC(=O)c1ccc2c(c1)C(C)(C)C(/C=C/c1ccc(O)cc1)=[N+]2C
IC50 [10]: > 50 µM (not active)
EC50 [11]: 7.59 µM (active)
IC50 (MDCK): 5.29 µM (active)
IC50 [12]: 29.5 µM (active)
IC50 (Nonstructural protein 1): 20.2 µM (active)
CC50 [13]: 35.1 µM (active)
EC50 [14]: > 260 µM (inconclusive)
EC50 [15]: 2.15 µM (active)
EC50 [16]: 2.06 µM (active)

COc1ccc(NC(=O)CCS(=O)(=O)c2ccc(Br)s2)cc1
EC50 [17]: 9.14 µM (active)

CCCc1ccc(C2C3=C(CC(C)(C)CC3=O)N=C3C2=C(O)c2ccccc23)cc1 (stereo unspecified)
AC50 [18]: 24.9 µM (active)
AC50 (Cytochrome P450 1A2 [19]): 6.31 µM (inconclusive)
EC50 [20]: > 150 µM (inactive)
EC50 [21]: 2.66 µM (active)
AC50 [22]: 187 µM (active)

Cn1cccc1C(=O)N1CCC2(CCCN(c3ncccn3)C2)CC1
AC50 (Cytochrome P450 1A2 [23]): inconclusive
AC50 (Cytochrome P450 2C19): inconclusive
AC50 (Cytochrome P450 2D6): inconclusive
AC50 (Cytochrome P450 2C9): inconclusive

Cn1cnnc1SCC(=O)Nc1ccc2nc(SCC(=O)c3ccccc3)sc2c1
IC50 [24]: > 66 µM (inactive)

CCC1=Nc2cc(C(=O)NCc3ccco3)ccc2Sc2ccc(Cl)cc21
IC50 (Phospholipase A2): 40.1 µM (inactive)
EC50 (BJ [25]): 20.4 µM (active)
EC50 (BJ [26]): 1.55 µM (active)
EC50 [27]: 1.97 µM (active)
IC50 (Cysteine protease ATG4B): > 80 µM (inactive)
